Reference: patent US20160015770A1, “COMPOSITIONS FOR TREATMENT OF RETINAL DETACHMENT” (THE REGENTS OF THE UNIVERSITY OF MICHIGAN, priority 2013, published 2016)
Entries after “also recorded” stand apart in the source; their conditions may differ.

Legend:
[1] = system: detached retina; assay: Experimental retinal detachment, western blot of autophagy markers (Atg5, Atg5-12, LC3-II) in retina; type: in vivo; conditions: rat, 0.2 μg subretinal at time of detachment, 7 days, vs detached retinas alone
Protocol: All experiments were performed in accordance with the ARVO Statement for the Use of Animals in Ophthalmic and Vision Research and the guidelines established by the University Committee on Use and Care of Animals of the University of Michigan. Detachments were created in adult male Brown-Norway rats (300-400 g; Charles River Laboratories, Wilmington, Mass.) as described previously. Briefly, rodents were anesthetized with a 50:50 mix of ketamine/xylazine, and pupils were dilated with topical phenylephrine (2.5%) and tropicamide (1%). A 20-gauge microvitreoretinal blade was used to create a sclerotomy 2 mm posterior to the limbus, carefully avoiding lens damage. A subretinal injector (Glaser, 32-gauge tip; BD Ophthalmic Systems, Franklin Lakes, N.J.) was introduced through the sclerotomy into the vitreous cavity and then through a peripheral retinotomy into the subretinal space. Sodium hyaluronate (10 mg/mL, Healon OVD; Abbott Medical Optics, Uppsala, Sweden) was slowly injected to detach the neurosensory retina from the underlying RPE. In all experiments, approximately one third to one half of the neurosensory retina was detached. Detachments were created in the left eye. The right eye served as the control, with all the steps of the procedure performed except for introduction of the subretinal injector and injection of the sodium hyaluronate. […]
Retinas from experimental eyes with detachment (detached portion of retina only) and control eyes without detachment were dissected from the RPE-choroid, homogenized, and lysed in buffer containing 10 mM HEPES (pH 7.6), 0.5% IgEPal, 42 mM KCl, 1 mM phenylmethylsulfonyl fluoride, 1 mM EDTA, 1 mM EGTA, 1 mM dithiothreitol, 5 mM MgCl2, and one tablet of protease inhibitors per 10 mL buffer (Complete Mini; Roche Diagnostics GmbH, Madison, Wis.). […] The protein concentration of the supernatant was then determined (DC Protein Assay kit; Bio-Rad Laboratories, Hercules, Calif.). The protein samples were separated on SDS-polyacrylamide gels (Tris-HCl Ready Gels; Bio-Rad Laboratories). […]

[2] = system: caspase 8; assay: Caspase 8 activity luminescent assay in Fas-activated 661W cells; type: cell-based, mouse
Protocol: Caspase 8 activity was measured by a commercially available luminescent cleavage assay kit (Promega, Madison, Wis.). The 661W cells were seeded in 96-well plates at 2,000 cells/well for 24 hours before treatment. Cells were treated with 500 ng/mL Fas-agonistic Jo2 monoclonal antibody and various concentrations of calpeptin or equal volume of DMSO. Caspase 8 activity was measured at 48 hours by incubating the cells with the proluminescent substrate in 96-well plates according to the manufacturer's instructions. Controls included untreated cells and wells with no cells. Luminescence was measured in a plate reader luminometer (Turner Biosystems, Sunnyvale, Calif.).

## CCCC[C@@H](C=O)NC(=O)[C@H](CC(C)C)NC(=O)OCc1ccccc1 [calpeptin]
[1]
  Atg5 level in retina: increase in Atg5; also recorded: significantly more Atg5
[2]; 661W cells not treated with Fas activating antibody, calpeptin alone
  caspase 8 activity: no effect
[2]; 661W cells, Fas activating antibody 48 hours, 1 μM
  caspase 8 activity: little effect
[2]; 661W cells, Fas activating antibody 48 hours, 10 uM
  caspase 8 activity: returned caspase 8 activity to baseline levels; also recorded: significantly reduced its activity back to baseline
[2]; 661W cells, Fas activating antibody 48 hours, 25 uM
  caspase 8 activity: returned caspase 8 activity to baseline levels; also recorded: significantly reduced its activity back to baseline
